Data as given in US11999695B2, “YAP1 inhibitors that target the interaction of YAP1 with OCT4” (H. LEE MOFFITT CANCER CENTER AND RESEARCH INSTITUTE, INC., priority 2016, dated 2024).
One block for each compound: values may come before it.

Tests used:
[1] = tested on: cisplatin-insensitive SP cells from H1650 cells; assay: Sphere formation of cisplatin-insensitive SP cells (FIG. 30); format: cell-based; conditions: YAP1 inhibitors 2 uM, cisplatin 5 uM
Experimental: One feature of cancer stem cells is their drug resistance. Sphere formation of SP cells from H1650 cells was conduced in the presence of cisplatin; stem-like SP cells can self-renew and form spheres in stem-cell selective media and on low-adherence plates, even in the presence of 5 uM cisplatin (top right image).

[2] = tested on: stem-like side-population (SP) cells; assay: Sphere-formation assay, self-renewal of side-population cells (FIG. 18-21); format: cell-based; conditions: SP cells in low-adherence plates, stem-cell selective media, 10 days
Experimental: FIG. 18 is a group of cell micrographs showing inhibition of self-renewals by selected compounds in a sphere formation assay. Self-renewal of stem-like side-population (SP) cells was measured by a sphere-formation assay. Essentially, side-population cells were sorted by flow cytometry based on Hoechst 33342 dye exclusion as described in our publications. Isolated SP cells were grown in low-adherence plates in stem-cell selective media for 10 days (Singh and Chellappan, 2012, Bora-Singhal et al., 2015 etc). Self-renewal ability of the stem-like cells can be assessed by the formation of spheres under these conditions; non-stem cells cannot self-renew and form spheres.
The assay is conducted for 10 days, and the number of spheres larger than 50 μm in diameter is counted.

[3] = tested on: A549 lung adenocarcinoma cells; assay: Cytokine array on A549 cells (FIG. 39); format: cell-based
Description: FIG. 39 is a graph showing results from a cytokine array performed on A549 cells treated with SR2-033.

[4] = target: YAP1:OCT4 (Homo sapiens, UniProt P46937); assay: In vitro YAP1:OCT4 ELISA binding assay; conditions: YAP1:OCT4 disruption
Experimental: Activities of Compounds in the In Vitro YAP1:OCT4 ELISA Binding Assay
Selected compounds were assayed in a YAP1:OCT4 binding assay.

[5] = tested on: Sox2; assay: Sox2 protein expression, gel images (FIG. 16); format: cell-based; conditions: adenocarcinoma cells
Description: FIG. 16 is a group of gel images showing Sox2 protein expression was reduced by SR-2033 in adenocarcinoma cells.

[6] = target: T1, binding of Oct4 to YAP1 (Homo sapiens, UniProt P46937); assay: Immunoprecipitation-Western blot of Oct4-YAP1 binding (FIG. 15); format: cell-based; conditions: 5 μM, 72 hours
T1 construct: Lysates were prepared from the cells, and immunoprecipitated with an antibody to OCt4; endogenous in cells; host or cells: A549 and H1650 cells
Experimental: FIG. 15 is a group of gel images showing peptidomimetic compounds SR2-022, SR2-030, and SR2-033 reduced YAP1-Oct4 interaction as detected by IP-WB. An immunoprecipitation-Western blot experiment was conducted to assess if the indicated compounds could disrupt the binding of Oct4 to YAP1. IP-western blots were conducted using the protocols described in Bora-Singhal et al, 2015. Essentially, cells were treated with 5 μM of the indicated compounds for 72 hours. Lysates were prepared from the cells, and immunoprecipitated with an antibody to OCt4, or a control IgG. Lysates as well as the immunoprecipitates were resoled by a polyacrylamide gel and a western blot was conducted using an antibody to YAP1.

[7] = tested on: primary cancer associated fibroblasts; assay: Cytokine array (FIG. 40); format: cell-based
[8] = tested on: phoshodiesterate kinase 2; assay: Western blot of phoshodiesterate kinase 2 levels (FIG. 17); format: cell-based; conditions: 10 uM; 72 hours
Experimental: (§1) FIG. 17 is a group of gel images showing compounds SR2-046, SR2-051, and SR2-052 reduce Sox2, c-Myc expression in H165 and A549 cells. Cells were treated for 72 hours with the indicated compounds. A western blot showing the reduction of Sox2 expression in H1650 cells and in A549 cells after treatment with 10 uM of the drugs for 72 hours. There was a reduction in the levels of C-myc and phoshodiesterate kinase 2 as well. Western blotting was done using our standard protocols, as published in Bora-Singhal et al., 2015.

[9] = tested on: c-Myc; assay: Western blot of c-Myc expression (FIG. 17); format: cell-based; conditions: H1650 and A549 cells; 10 uM; 72 hours
Experimental: as §1

[10] = tested on: Sox2; assay: Western blot of Sox2 expression (FIG. 17); format: cell-based; conditions: H1650 and A549 cells; 10 uM; 72 hours
Experimental: as §1

[11] = tested on: methotrexate insensitive H146 small-cell lung carcinoma cells; assay: Sphere formation of methotrexate-insensitive cells (FIG. 31); format: cell-based; conditions: YAP1 inhibitors 2 uM, methotrexate 2.5 uM
Experimental: A similar experiment, where sphere formation of small-cell lung cancer cells, which are insensitive to methotrexate, was inhibited by YAP1 inhibitors. Sphere formation of SP cells from H146 small-cell lung carcinoma cells was conduced in the presence of 2.5 uM methotrexate; stem-like cells can self-renew and form spheres in stem-cell selective media and on low-adherence plates, even in the presence of 2.5 uM methotrexate.

Chain of YAP1:OCT4 (P46937 whole entry): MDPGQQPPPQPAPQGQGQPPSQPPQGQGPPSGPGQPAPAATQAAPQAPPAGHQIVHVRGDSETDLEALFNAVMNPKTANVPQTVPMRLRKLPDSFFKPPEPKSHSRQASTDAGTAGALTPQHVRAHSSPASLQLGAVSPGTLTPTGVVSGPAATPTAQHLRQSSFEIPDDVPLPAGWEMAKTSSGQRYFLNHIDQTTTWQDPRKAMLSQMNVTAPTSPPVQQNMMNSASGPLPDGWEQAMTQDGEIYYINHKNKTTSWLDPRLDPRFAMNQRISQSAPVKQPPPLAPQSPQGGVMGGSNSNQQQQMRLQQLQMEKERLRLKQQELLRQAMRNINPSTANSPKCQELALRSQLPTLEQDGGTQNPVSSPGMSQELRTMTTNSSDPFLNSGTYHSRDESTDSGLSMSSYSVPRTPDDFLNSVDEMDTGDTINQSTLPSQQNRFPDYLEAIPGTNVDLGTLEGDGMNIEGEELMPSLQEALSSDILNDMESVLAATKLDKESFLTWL
T1 sequence (P46937 whole entry): as above

Compound: N.N.[Cl][Pt][Cl] [Cisplatin]
self-renewal (sphere formation) of dissociated cisplatin-insensitive spheres [1]: allowed self-renewal and formation of colonies
number of spheres [2]: no effect

IC50 [4]: < 10 µM
YAP1-Oct4 interaction detected by IP-WB ([6]; A549 cells): completely abolished
YAP1-Oct4 interaction detected by IP-WB ([6]; H1650 cells): significantly reduced
Compound: COC(=O)[C@H](Cc1ccc(OCc2ccccc2)cc1)NC(=O)CC1CCN(C(=O)CCc2ccc(C#N)cc2)CC1 [SR2-033, Methyl (S)-3-(4-(benzyloxy)phenyl)-2-(2-(1-(3-(4-cyanophenyl)propanoyl)piperidin-4-yl)acetamido)propanoate]
levels of secreted cytokines (cytokine array) [3]: altered
Sox2 protein expression [5]: reduced
levels of secreted cytokines (cytokine array) [7]: altered

IC50 [4]: < 10 µM
Compound: COC(=O)[C@H](Cc1ccc(OCc2ccccc2)cc1)NC(=O)CC1CCN(C(=O)CCCc2ccccc2)CC1 [SR2-046, Methyl (S)-3-(4-(benzyloxy)phenyl)-2-(2-(1-(4-phenylbutanoyl)piperidin-4-yl)acetamido)-propanoate]
levels of phoshodiesterate kinase 2 (western blot) [8]: reduction
c-Myc expression (western blot) [9]: reduce
Sox2 expression (western blot) [10]: reduce

Compound: COC(=O)[C@H](Cc1ccc(OCc2ccccc2)cc1)NC(=O)CC1CCN(C(=O)c2ccc(NC(=O)OC(C)(C)C)cc2)CC1 [SR2-051, Methyl (S)-3-(4-(benzyloxy)phenyl)-2-(2-(1-(4-((tert-butoxycarbonyl)amino)benzoyl)piperidin-4-yl)acetamido)propanoate]
IC50 [4]: < 10 µM
levels of phoshodiesterate kinase 2 (western blot) [8]: reduction
c-Myc expression (western blot) [9]: reduce
Sox2 expression (western blot) [10]: reduce

Compound: COC(=O)[C@H](Cc1ccc(OCc2ccccc2)cc1)NC(=O)CC1CCN(C(=O)Cc2ccc(NC(=O)OC(C)(C)C)cc2)CC1 [SR2-052, Methyl (S)-3-(4-(benzyloxy)phenyl)-2-(2-(1-(2-(4-((tert-butoxycarbonyl)amino)phenyl)acetyl)piperidin-4-yl)acetamido)propanoate]
IC50 [4]: < 10 µM
levels of phoshodiesterate kinase 2 (western blot) [8]: reduction
c-Myc expression (western blot) [9]: reduce
Sox2 expression (western blot) [10]: reduce

Compound: CN(Cc1cnc2nc(N)nc(N)c2n1)c1ccc(C(=O)N[C@@H](CCC(=O)O)C(=O)O)cc1 [methotrexate]
self-renewal (sphere formation) of dissociated methotrexate-insensitive spheres [11]: allowed self-renewal and formation of colonies
